Tested on: rat uterus
Experiment: Disappearance of exogenous PGF2α in rat uterus slices (R.I.A.)
Parameters: species or system Wistar rats
Method: An experiment was performed in which the disappearance of exogenous PGF2α was determined in the nutrient solution of slices of rat uterus both in the presence and absence of the synthetic PGE1 analog, B-407.
Seven Wistar rats weighing approximately 220 g were estrogenized by the subcutaneous administration of 100 µg/kg of 17β estradiol. Twenty-four hours later they were killed by decapitation. The uterine horns were dissected out and weighed. The horns were cut and washed with bubbled De Jalon nutrient solution plus 4x10^-7 M sodium diclofenac during 15 to 20 minutes. Both bubbling and diclofenac content were maintained in the following steps: each horn was then placed in a small organ bath and preincubated during 15 to 20 min with either the nutrient solution alone or containing B-407 10^-8 M or 10^-7 M. The assay was started by adding exogenous PGF2α (10^-8 M in the medium) to each horn previously changed to a new tube. A final volume of 0.4 ml was obtained with the addition of De Jalon solution at 37°C. Aliquots of […] were sampled at 0 min, 5 min, 15 min and 30 min. The PGF2α concentration in each sample was determined by R.I.A. (Sigma, NEN) and it was expressed as pg/mg of wet tissue.

## CCCCC(C)(O)C/C=C/[C@H]1[C@H](O)CC(=O)[C@@H]1CCCC/C=C/C(=O)OC (mixture of isomers) [B-407, trans-Δ^2-15-deoxy-16-hydroxy-16-methyl PGE1 methyl ester]
B-407 10^-7 M, time 0 min, control 655,4
  PGF2α (pg/mg tissue): 667,2 pg/mg tissue
B-407 10^-7 M, time 5 min, control 582.8
  PGF2α (pg/mg tissue): 623,7 pg/mg tissue
B-407 10^-7 M, time 15 min, control 478.4
  PGF2α (pg/mg tissue): 561,7 pg/mg tissue
B-407 10^-7 M, time 30 min, control 227.5
  PGF2α (pg/mg tissue): 528,4 pg/mg tissue
B-407 10^-8 M, time 0 min, control 655,4
  PGF2α (pg/mg tissue): 705,7 pg/mg tissue
B-407 10^-8 M, time 5 min, control 582.8
  PGF2α (pg/mg tissue): 705,9 pg/mg tissue
B-407 10^-8 M, time 15 min, control 478.4
  PGF2α (pg/mg tissue): 563,6 pg/mg tissue
B-407 10^-8 M, time 30 min, control 227.5
  PGF2α (pg/mg tissue): 403,7 pg/mg tissue
